Patent US20220280589A1, “METHOD FOR TREATING ALZHEIMER'S DISEASE BY REGULATING AMINO ACID LEVEL” (SHANGHAI GREEN VALLEY PHARMACEUTICAL CO., LTD., priority 2019, published 2022)
Entries after “also recorded” stand apart in the source; their conditions may differ.

Assays:
[1] = system: 5XFAD transgenic (Tg) mice; assay: Flow cytometry of brain homogenate immune cells (Th1, M1 microglia); assay type: in vivo, mouse; conditions: 6-month-old 5XFAD mice, 50 mg/kg intraperitoneal injection every day for one month, versus vehicle
Protocol: Tg mice and co-housed WT mice (corresponding WT mice generated by mating Tg mice and C57 mice) were housed in the same cage after birth. WT mice (C57) were housed in separate cages to avoid cross-transfer of microbiota. All mice were kept in a 23° C. room with a 12-hour (h) light-dark cycle. Mice were randomly assigned to different groups before treatment. For time course analysis of Tg mice, male and female Tg mice were sacrificed at 2, 3, 5, 7 and 9 months of age. The mouse brain was collected and stained for immune cell analysis and cytokine analysis. […] The brains and feces of the mice were then used for different analyses.
Mice were anesthetized, blood samples were collected into EDTA-containing tubes, and red blood cells were removed using 1×red blood lysis buffer. Before tissue collection, the brains were perfused with ice-cold PBS to avoid sampling the circulating blood immune cells, and the brains were removed, chopped into pieces and dissected according to the introduction of the Adult Brain Dissociation Kit (Miltenyi, Cat No. 130-107-677) using the gentleMACS dissociator (Miltenyi Biotec). The brain homogenate was filtered through a 70-μm cell strainer and centrifuged at 300×g for 5 min at 4° C. […] All samples were counted and adjusted to a density of 2-3×10^6/100 μL, labeled with a Live/Dead kit for 30 min, and then centrifuged at 500×g for 3 min at 4° C. […]

SLC7A5 = target: T1, SLC7A5 (Mus musculus, UniProt Q9Z127); assay: Uptake of ^13C-labeled phenylalanine by CD4^+ T cells; assay type: cell-based; conditions: ^13C-phenylalanine 5 mmol/L, 0.5 h
T1 construct: endogenous in cells; host or cells: Primary CD4+ T cells (naive/Th0 and IL-12-induced Th1) from splenocytes of C57BL/6 mice
T1 sequence (Q9Z127 whole entry): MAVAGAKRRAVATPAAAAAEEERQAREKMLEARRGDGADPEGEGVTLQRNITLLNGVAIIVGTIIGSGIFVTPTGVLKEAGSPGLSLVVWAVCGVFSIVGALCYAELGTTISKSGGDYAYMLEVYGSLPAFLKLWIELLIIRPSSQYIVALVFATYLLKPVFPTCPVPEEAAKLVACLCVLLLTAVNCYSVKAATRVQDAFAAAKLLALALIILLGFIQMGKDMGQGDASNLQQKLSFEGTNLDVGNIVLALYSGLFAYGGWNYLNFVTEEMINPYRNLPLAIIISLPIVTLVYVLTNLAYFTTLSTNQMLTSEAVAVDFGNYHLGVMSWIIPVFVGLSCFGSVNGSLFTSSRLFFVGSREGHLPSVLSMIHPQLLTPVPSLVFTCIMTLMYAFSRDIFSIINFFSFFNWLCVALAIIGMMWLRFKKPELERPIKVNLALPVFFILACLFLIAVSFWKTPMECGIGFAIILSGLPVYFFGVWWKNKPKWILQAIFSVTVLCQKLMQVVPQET
T1 sequence (P10852 whole entry partner): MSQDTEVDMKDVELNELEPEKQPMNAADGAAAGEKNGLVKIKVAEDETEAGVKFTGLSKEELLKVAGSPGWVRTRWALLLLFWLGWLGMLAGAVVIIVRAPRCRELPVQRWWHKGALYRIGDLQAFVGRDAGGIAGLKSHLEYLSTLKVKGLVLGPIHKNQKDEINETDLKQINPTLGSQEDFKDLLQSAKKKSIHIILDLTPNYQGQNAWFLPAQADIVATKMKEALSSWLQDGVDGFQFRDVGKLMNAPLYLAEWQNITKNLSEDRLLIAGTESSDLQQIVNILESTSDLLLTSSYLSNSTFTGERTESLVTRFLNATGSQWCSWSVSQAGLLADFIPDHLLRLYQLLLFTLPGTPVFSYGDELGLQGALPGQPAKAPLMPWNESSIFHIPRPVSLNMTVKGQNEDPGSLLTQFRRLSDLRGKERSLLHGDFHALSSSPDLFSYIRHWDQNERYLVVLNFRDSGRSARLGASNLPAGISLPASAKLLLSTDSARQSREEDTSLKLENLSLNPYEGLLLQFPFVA
Protocol: (k) The uptake of phenylalanine by the naïve CD4 T cells. The naïve CD4 T cells were cultured with/without ^13C-labeled phenylalanine for 0.5 h. Mass Spectrometry of phenylalanine-related compounds were tested. ^13C-Phenylalanine is administered at a concentration of 5 mmol/L, and is taken up by an L-type amino acid transporter.
Naive CD4^+ T cells were separated from the splenocytes of 8-month-old C57BL/6 female mice using the Naive CD4^+ T cell Isolation Kit (Stem Cell, Cat No. 19765) and were induced to Th1 differentiation by 20 ng/mL IL-12. After 3 days, a total of 5 ×10^5 cells/well Th1 cells and Th0 cells in 0.5 mL of RPMI-1640 medium were plated into 48-well plates. ^13C-labeled phenylalanine and 5 mM amino transporter inhibitor BCH were added into indicated wells. After 0.5 h, cells were collected and washed twice with ice-cold D-PBS. 50 μL deionized water was added and cells were lysed through freezing and thawing twice at −80° C. The cell lysate was centrifuged at 12000×g for 10 min and ^13 C-labeled phenylalanine in the supernatant was analyzed by Mass spectrometry.

naive CD4^+ T cells = assay: In vitro differentiation and proliferation induced by phenylalanine and isoleucine; assay type: cell-based, mouse; conditions: 3 days; for Th1 cell proliferation: amino acid (1 mM) added to CellTrace-stained naive CD4^+ T cell culture; for Th0 cell differentiation into Th1 cells: amino acid (1 mM) added to naive CD4^+ T cell culture
Protocol: (e) The effects of OM1 on the differentiation of naive CD4^+ T cells (Th0 cells) to Th1 cells induced by phenylalanine and isoleucine. Naive CD4^+ T cells were cultured for 3 days with/without OM1 in the presence of phenylalanine (1 mM) or isoleucine (1 mM). The frequency of Th1 (CD4^+IFN-γ^+) cells was tested by flow cytometry. The data are presented as mean±standard error of the mean (mean±sem); n=3 replicates per group. Left, *P<0.05, **P<0.01 by one-way ANOVA (F (2, 6)=15.64). Right, *P<0.05, **P<0.01 by one-way ANOVA (F (2, 6)=10.35).
(f) The effects of OM1 on the proliferation of Th1 cells induced by phenylalanine and isoleucine. The naive CD4^+ T cells were stained with CellTrace and cultured for 3 days with/without OM1 in the presence of phenylalanine (1 mM) and isoleucine (1 mM). The density of CellTrace fluorescence in Th1 (CD4^+IFN-γ^+) cells was tested by flow cytometry (see Methods). The data are presented as mean±standard error of the mean (mean±sem), n=3. *P<0.05, ***P<0.001 by one-way ANOVA (F (4, 9)=28.34).
Naive CD4^+ T cells were separated from the splenocytes of 8-month-old C57BL/6 female mice using the Naive CD4^+ T cell Isolation Kit (Stem Cell, #19765), and the cells were stained with CellTrace (Thermo Fisher, #C34557). A total of 1×10^5 cells/well in 0.2 mL of RPMI-1640 medium were plated in 96-well plates, and the culture medium was supplemented with cytokines or blocking antibodies. Th0: 10 ng/mL mIL-2; Th1:10 ng/mL mIL-2, 5000 ng/mL 11B11. Phenylalanine (final concentration, 2 mmol/L), isoleucine (final concentration, 2 mmol/L) and OM1 (final concentration, 100 μg/mL) were added into the indicated wells, respectively. After incubation at 37° C. in 5% CO2 for 5 days, cells were acquired on a BD Fortessa cytometer, and data were analyzed using FlowJo software.

C57 mice = assay: Intraperitoneal injection of phenylalanine and isoleucine, blood Th1 cells by flow cytometry; assay type: in vivo, mouse; conditions: WT (C57) mice, intraperitoneal injection 50 mg/kg for 4 days
Protocol: (g) Blood Th1 cell changes after 4-day intraperitoneal (i.p.) injection of phenylalanine and isoleucine (n=6). ***P<0.001 by one-way ANOVA (F (2, 21)=101.8).
Tg mice and co-housed WT mice (corresponding WT mice generated by mating Tg mice and C57 mice) were housed in the same cage after birth. WT mice (C57) were housed in separate cages to avoid cross-transfer of microbiota. All mice were kept in a 23° C. room with a 12-hour (h) light-dark cycle. Mice were randomly assigned to different groups before treatment. For time course analysis of Tg mice, male and female Tg mice were sacrificed at 2, 3, 5, 7 and 9 months of age. The mouse brain was collected and stained for immune cell analysis and cytokine analysis. Before the mice were sacrificed, feces were collected for gut microbiota analysis. […] All mouse movements that occur in PhenoTyper (HomeCage) are recorded by a computerized tracking system, which calculates the time and number of entrances required to reach 80% of the performance standard (Noldus, Ethovision). […]
Mice were anesthetized, blood samples were collected into EDTA-containing tubes, and red blood cells were removed using 1×red blood lysis buffer. […] All samples were counted and adjusted to a density of 2-3×10^6/100 μL, labeled with a Live/Dead kit for 30 min, and then centrifuged at 500×g for 3 min at 4° C. […]

Row | uptake of ^13C-labeled phenylalanine by CD4^+ T cells (SLC7A5) | SMILES | proportion of pro-inflammatory Th1 cells in the brain [1] | Th1 cell proliferation (naive CD4^+ T cells) | Th0 cell differentiation into Th1 cells (naive CD4^+ T cells) | Th1 cell count in the blood (C57 mice)
1 | blocked | Nc1cc(COc2c(Cl)cc(C[C@H](N)C(=O)O)cc2Cl)c2oc(-c3ccccc3)nc2c1 [JPH203] | effectively inhibits the proportion of Th1 cells in the brain; also recorded: significantly downregulated the proportion of pro-inflammatory Th1 cells in the mouse brain | – | – | –
2 | – | CC[C@H](C)[C@H](N)C(=O)O [isoleucine] | – | increased | increased | increased significantly
3 | – | N[C@@H](Cc1ccccc1)C(=O)O [phenylalanine] | – | increased | increased | increased significantly
